Results: patent US12370152B2, “Pharmaceutical composition for preventing or treating metabolic diseases” (INDUSTRY ACADEMIC COOPERATION FOUNDATION CHOSUN UNIVERSITY, priority 2021, dated 2025)

How the values were obtained:
[1] = test system: SIRT1, AMPK and ACC; test: Western blot of SIRT1, AMPK and ACC in HepG2 cells; type: cell-based
Description: (§1) HepG2 hepatocytes were cultured in low glucose Dulbecco's modified Eagle medium (DMEM) (Gibco, Life Technologies, Grand Island, NY, USA) to which 10% FBS (Gibco, Life Technologies, USA), L-glutamine, and 1% penicillin/streptomycin solution were added. The cells were manipulated in a humidified incubator at 37° C. containing 5% CO2 under a sterile condition. The cells were sub-cultured as soon as they reached confluence. The cells were continuously monitored under a bright-field microscope (Nikon Eclipse TS100, Tokyo, Japan), and the medium was replaced every 3 days. For cell viability assays, the cells were seeded and treated with 0 μM-2000 μM camphorquinone (CQ) for 24 hours, then incubated in MTT solution (0.5 mg/ml) for 2 hours, and then formazan crystals were dissolved using dimethyl sulfoxide (DMSO). Cell viability was evaluated using a spectrophotometer (Multiskan FC, Thermo Fisher Scientific).
(§2) Total proteins were extracted with a RIPA lysis buffer system including phenylmethylsulfonyl fluoride (PMSF), sodium orthovanadate (Na3VO4) and protease inhibitor cocktail (Santa Cruz Biotechnology) at 4° C. for 30 minutes, and the extracted sample was centrifuged at 16,000×g for 20 minutes. The concentration of total proteins was quantified using a Pierce BCA Protein Assay Kit (Thermo Fisher Scientific). The proteins (30 to 50 μg) were loaded and separated through sodium dodecyl sulfate-polyacrylamide gel electrophoresis (SDS-PAGE), and then blotted with a PVDF membrane (GE Healthcare, Germany). In order to prevent nonspecific binding of the primary antibodies, the membrane was blocked with TBST including 1% non-fat dry milk for 1 hour and 30 minutes at room temperature (RT). Then, the membrane was incubated overnight at 4° C. together with each primary antibody. The secondary antibodies were conjugated with horseradish peroxidase and visualized with an enhanced chemiluminescence detection kit (GE Healthcare). Analysis of density measurement was performed using Image J software.

[2] = test system: LKB1, PGC1a and CRTC2; test: Expression of LKB1, PGC1a and CRTC2 in liver of diabetic mouse model; type: in vivo, C57BL/6 mice; conditions: CQ treatment vs HFD+STZ-treated HFD mouse group
Description: (§3) 6-week-old male C57BL/6 mice (weight 22±2 g) were purchased from Samtako Bio Korea Co., Ltd. (Osan, Gyeonggi-do, Korea). The mice were maintained at 23 to 25° C. under a 12 h light-dark cycle with free access to food and water in a pathogen-free animal facility center. All animal experiments were approved in accordance with the Chosun University Institutional Animal Care and Use Committee (CIACUC2020-S0009). All animals were fed normal chow pellets (ND, SAM #31, Samtako, Inc.), and went through a period of adjustment for 1 week. During the following week, the animals were randomly classified according to the body weight, and one-third of the animals were classified as normal controls to be fed normal chow pellets throughout the study. On the other hand, the remaining animals were fed a high-fat diet (HFD; 60% Kcal energy as fat) (study diet; #D12492; New Brunswick, NJ 08901 USA) for 2 weeks in order to induce insulin resistance, and the diet was continued until the study ended. Then, STZ (30 mg/kg, i.p.) was administered to the animals for 5 consecutive days from the 4th week to induce T2DM therein. On the other hand, the normal control animals were administered the same volume of citrate buffer instead of the STZ. Blood glucose levels of the animals were measured at the end of week 5, and animals showing a fasting blood glucose level (FBG)≥200 mg/dl were selected for the study. Finally, the animals were divided into the following 4 groups; Group 1: saline-treated normal control mice (Control), Group 2: saline-treated diabetic control mice (HFD), Group 3: camphorquinone (10 mg/kg/day, i.p.)-treated diabetic mice (CQ-L), and Group 4: camphorquinone (30 mg/kg/day, i.p.)-treated diabetic mice (CQ-H). […]
(§4) Total RNA was separated from liver tissue of the mouse model using RNAisoPlus (Takara). Then, total RNA (2.5 μg) was reverse transcribed using a Primescript™ II 1st strand cDNA synthesis kit (Takara), and quantified using a Power SYBR Green PCR Master mix (Applied BioSystems). […]

[3] = test system: SREBP1, FASN, ChREB, CPT1a and CPT1b; test: qRT-PCR of lipid production and β-oxidation genes in liver of diabetic mouse model; type: in vivo, C57BL/6 mice; conditions: CQ-L, 10 mg/kg/day i.p., vs HFD mouse group
Description: as §3, §4

[4] = test system: HFD+STZ-induced type 2 diabetic mice; test: Body weight and liver weight in HFD+STZ-induced type 2 diabetic mice; type: in vivo, C57BL/6 mice; conditions: CQ-L, 10 mg/kg/day i.p., 3 weeks
Description: as §3, with “study.” for “study. Finally, the animals were divided into the following 4 groups; Group 1: saline-treated normal control mice (Control), Group 2: saline-treated diabetic control mice (HFD), Group 3: camphorquinone (10 mg/kg/day, i.p.)-treated diabetic mice (CQ-L), and Group 4: camphorquinone (30 mg/kg/day, i.p.)-treated diabetic mice (CQ-H).”

[5] = test system: LKB1 and ERK; test: LKB1 and ERK signals in liver tissue of diabetic mouse model; type: in vivo, C57BL/6 mice; conditions: vs HFD mouse group
Description: as §2
as §3, with “study.” for “study. Finally, the animals were divided into the following 4 groups; Group 1: saline-treated normal control mice (Control), Group 2: saline-treated diabetic control mice (HFD), Group 3: camphorquinone (10 mg/kg/day, i.p.)-treated diabetic mice (CQ-L), and Group 4: camphorquinone (30 mg/kg/day, i.p.)-treated diabetic mice (CQ-H).”

[6] = test system: AMPK, SIRT1 and ACC; test: Western blot of AMPK, SIRT1 and ACC in FFA-treated HepG2 fatty hepatocyte model; type: cell-based; conditions: FFA-treated hepatocytes, 500 μM CQ 24 hours
Description: (§5) Free fatty acids (FFA) were prepared from a combination of palmitic acid (PA) and oleic acid (OA). In short, stocks of 100 mM palmitic acid and 100 mM oleic acid dissolved in sodium hydroxide were prepared. These stock solutions were conjugated with 10% BSA (1:9) solution. All stock solutions were stored at −20° C. The cells were seeded and attached to a 6-well plate, then the cells were treated with a mixture of 0.2 mM PA and 0.4 mM OA (1:2) for 24 hours or the same volume of 10% BSA solution for 24 hours. FFA was removed the next day and 500 μM of camphorquinone was added to the mixture and left for 24 hours. Thereafter, the plate was used for protein and oil red staining.
as §2

[7] = test system: FFA-treated HepG2 cells; test: Oil Red O staining, lipid accumulation in FFA-treated HepG2 cells; type: cell-based; conditions: FFA-treated HepG2 cells (0.2 mM PA + 0.4 mM OA 24 hours), then 500 μM CQ 24 hours
Description: as §5
Oil Red O stock solution dissolved in isopropyl alcohol was prepared by magnetic stirring at room temperature for 2 hours, and the prepared solution was stored at room temperature. Then, Oil Red O working solution was prepared by mixing 1.5 parts of stock solution and 1 part of water (3:2), and incubated at 4° C. for 10 minutes. The solution was filtered through a 0.02 μm filter and used within 6 hours. […] The stained lipid droplets were dissolved in 2-propanol, and absorbance at 520 nm was measured to quantify lipid accumulation.

[8] = test system: AMPK and SIRT1; test: Immunoblotting of AMPK and SIRT1 in liver tissue of diabetic mouse model; type: in vivo, C57BL/6 mice; conditions: vs HFD mouse group
Description: as §2
as §3, with “study.” for “study. Finally, the animals were divided into the following 4 groups; Group 1: saline-treated normal control mice (Control), Group 2: saline-treated diabetic control mice (HFD), Group 3: camphorquinone (10 mg/kg/day, i.p.)-treated diabetic mice (CQ-L), and Group 4: camphorquinone (30 mg/kg/day, i.p.)-treated diabetic mice (CQ-H).”

[9] = test system: HFD+STZ-induced type 2 diabetic mice; test: Fasting blood glucose in HFD+STZ-induced type 2 diabetic mice; type: in vivo, C57BL/6 mice; conditions: 3 weeks, vs HFD+STZ-treated mice
Description: as §3, with “study.” for “study. Finally, the animals were divided into the following 4 groups; Group 1: saline-treated normal control mice (Control), Group 2: saline-treated diabetic control mice (HFD), Group 3: camphorquinone (10 mg/kg/day, i.p.)-treated diabetic mice (CQ-L), and Group 4: camphorquinone (30 mg/kg/day, i.p.)-treated diabetic mice (CQ-H).”

[10] = test system: IL1α, IL1β, IL6, p53, TNFα and RAGE; test: qRT-PCR of inflammatory markers in liver of diabetic mouse model; type: in vivo, C57BL/6 mice; conditions: CQ-L, 10 mg/kg/day i.p., vs HFD mouse group
Description: 6-week-old male C57BL/6 mice (weight 22±2 g) were purchased from Samtako Bio Korea Co., Ltd. (Osan, Gyeonggi-do, Korea). The mice were maintained at 23 to 25° C. under a 12 h light-dark cycle with free access to food and water in a pathogen-free animal facility center. All animal experiments were approved in accordance with the Chosun University Institutional Animal Care and Use Committee (CIACUC2020-S0009). All animals were fed normal chow pellets (ND, SAM #31, Samtako, Inc.), and went through a period of adjustment for 1 week. During the following week, the animals were randomly classified according to the body weight, and one-third of the animals were classified as normal controls to be fed normal chow pellets throughout the study. […] Blood glucose levels of the animals were measured at the end of week 5, and animals showing a fasting blood glucose level (FBG)≥200 mg/dl were selected for the study. […]
as §4

[11] = test system: HepG2 cells; test: MTT assay, cytotoxicity in HepG2 cells; type: cell-based; conditions: 24 hours
Description: as §1

[12] = test system: lipid synthesis marker (ChREB) and lipid β-oxidation markers (CES1, CES2 and CPT1A); test: qRT-PCR of lipid metabolism genes in FFA-treated cell model; type: cell-based
[13] = test system: HFD+STZ-induced type 2 diabetic mice; test: Glucose tolerance test in HFD+STZ-induced type 2 diabetic mice; type: in vivo, C57BL/6 mice; conditions: 1.5 g/kg d-glucose i.p., within 2 hours, vs HFD mouse group
Description: as §3, with “study.” for “study. Finally, the animals were divided into the following 4 groups; Group 1: saline-treated normal control mice (Control), Group 2: saline-treated diabetic control mice (HFD), Group 3: camphorquinone (10 mg/kg/day, i.p.)-treated diabetic mice (CQ-L), and Group 4: camphorquinone (30 mg/kg/day, i.p.)-treated diabetic mice (CQ-H).”

[14] = by treatment concentration of CQ

In the case of `c1cc(-c2cnn3cc(-c4ccc(OCCN5CCCCC5)cc4)cnc23)ccn1` [Compound C, reference compound], the “CQ-induced ACC protein expression” value ([1]; CC treatment together with CQ) is reported as “significantly decreased”, the “CQ-induced AMPK protein expression” value ([1]; CC treatment together with CQ) is reported as “significantly decreased” and the “CQ-induced SIRT1 protein expression” value ([1]; CC treatment together with CQ) is reported as “significantly decreased”.
For `CC12CCC(C(=O)C1=O)C2(C)C` (stereo not drawn) [camphorquinone], the “SIRT1, AMPK and ACC expression” value ([1]; CQ at 500 μM, increase was decreased at the high concentration) was “significant increase”, the ACC expression [1, 14] was “significantly increased in a dose-dependent manner” and the AMPK expression [1, 14] was “significantly increased in a dose-dependent manner”. The SIRT1 expression [1, 14] was “significantly increased in a dose-dependent manner”, the “expression of CRTC2 in liver” value [2] was “increased” and the “expression of LKB1 in liver” value [2] was “increased”. For the same compound, the “expression of PGC1a in liver” value [2] was “increased”, the “expression of FASN (lipid production) in liver” value [3] was “significantly decreased” and the “expression of SREBP1 (lipid production) in liver” value [3] was “significantly decreased”. The “expression of the lipid β-oxidation gene CPTa in liver” value [3] was “significantly increased”, the body weight [4] was “gradually decreased” and the liver weight [4] was “gradually decreased”. For the same compound, the “ERK marker in liver tissue” value ([5]; CQ-H, 30 mg/kg/day i.p.) was “highly expressed”, the “LKB1 marker in liver tissue” value ([5]; CQ-H, 30 mg/kg/day i.p.) was “highly expressed” and the “ERK marker in liver tissue” value ([5]; CQ-L, 10 mg/kg/day i.p.) was “highly expressed”. The “LKB1 marker in liver tissue” value ([5]; CQ-L, 10 mg/kg/day i.p.) was “highly expressed”, the “activation of ACC” value [6] was “restored” and the “activation of AMPK” value [6] was “restored”. For the same compound, the “activation of SIRT1” value [6] was “restored”, the “lipid accumulation (Oil red O staining)” value [7] was “reduced” and the “AMPK in liver tissue” value ([8]; CQ-H, 30 mg/kg/day i.p.) was “activated”. The “SIRT1 in liver tissue” value ([8]; CQ-H, 30 mg/kg/day i.p.) was “activated”, the “AMPK in liver tissue” value ([8]; CQ-L, 10 mg/kg/day i.p.) was “activated” and the “SIRT1 in liver tissue” value ([8]; CQ-L, 10 mg/kg/day i.p.) was “activated”. The “fasting blood glucose levels” value ([9]; CQ-H, 30 mg/kg/day i.p.) was “significantly decreased”, the “fasting blood glucose levels” value ([9]; CQ-L, 10 mg/kg/day i.p.) was “significantly decreased” and the “expressions of most inflammatory markers in the liver (IL1α, IL1β, IL6, p53, TNFα and RAGE)” value [10] was “significantly decreased”. The “cell viability (MTT assay)” value ([11]; at a high concentration (above 500 μM; 0-2000 μM tested)) was “decreased”, the “cytotoxicity (MTT assay)” value ([11]; up to 500 μM) was “No cytotoxicity” and the “expression of lipid β-oxidation marker” value [12] was “increased”. The “expressions of lipid synthesis markers” value [12] was “decreased”, the glucose tolerance ([13]; CQ-H, 30 mg/kg/day i.p.) was “improved” and the glucose tolerance ([13]; CQ-L, 10 mg/kg/day i.p.) was “improved”.
